Reference: PubChem BioAssay (NCI)
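At the GI50, growth is halved. The concentration for full growth arrest is given as TGI.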

What was measured:
Assay in all cases: DTP human tumour cell line panel, 384-well format
786-0 renal = tested on: 786-0 renal
A498 renal = tested on: A498 renal
A549 NSCLC = tested on: A549 NSCLC
ACHN renal = tested on: ACHN renal
BT-549 breast = tested on: BT-549 breast
CAKI-1 renal = tested on: CAKI-1 renal
CCRF-CEM leukemia = tested on: CCRF-CEM leukemia
COLO 205 colon = tested on: COLO 205 colon
DU-145 prostate = tested on: DU-145 prostate
EKVX NSCLC = tested on: EKVX NSCLC
HCC-2998 colon = tested on: HCC-2998 colon
HCT-116 colon = tested on: HCT-116 colon
HCT-15 colon = tested on: HCT-15 colon
HL-60(TB) leukemia = tested on: HL-60(TB) leukemia
HOP-62 NSCLC = tested on: HOP-62 NSCLC
HOP-92 NSCLC = tested on: HOP-92 NSCLC
HS 578T breast = tested on: HS 578T breast
HT29 colon = tested on: HT29 colon
IGROV1 ovarian = tested on: IGROV1 ovarian
K-562 leukemia = tested on: K-562 leukemia
KM12 colon = tested on: KM12 colon
LOX IMVI melanoma = tested on: LOX IMVI melanoma
M14 melanoma = tested on: M14 melanoma
MALME-3M melanoma = tested on: MALME-3M melanoma
MCF7 breast = tested on: MCF7 breast
MDA-MB-231 breast = tested on: MDA-MB-231 breast
MDA-MB-435 melanoma = tested on: MDA-MB-435 melanoma
MDA-MB-468 breast = tested on: MDA-MB-468 breast
MOLT-4 leukemia = tested on: MOLT-4 leukemia
NCI-H226 lung = tested on: NCI-H226 lung
NCI-H23 lung = tested on: NCI-H23 lung
NCI-H322M lung = tested on: NCI-H322M lung
NCI-H460 NSCLC = tested on: NCI-H460 NSCLC
NCI-H522 lung = tested on: NCI-H522 lung
NCI/ADR-RES ovarian = tested on: NCI/ADR-RES ovarian
OVCAR-3 ovarian = tested on: OVCAR-3 ovarian
OVCAR-4 ovarian = tested on: OVCAR-4 ovarian
OVCAR-5 ovarian = tested on: OVCAR-5 ovarian
OVCAR-8 ovarian = tested on: OVCAR-8 ovarian
PC-3 prostate = tested on: PC-3 prostate
RPMI-8226 leukemia = tested on: RPMI-8226 leukemia
RXF 393 renal = tested on: RXF 393 renal
SF-268 CNS = tested on: SF-268 CNS
SF-295 CNS = tested on: SF-295 CNS
SF-539 CNS = tested on: SF-539 CNS
SK-MEL-28 melanoma = tested on: SK-MEL-28 melanoma
SK-MEL-5 melanoma = tested on: SK-MEL-5 melanoma
SK-OV-3 ovarian = tested on: SK-OV-3 ovarian
SN12C renal = tested on: SN12C renal
SNB-19 CNS = tested on: SNB-19 CNS
SNB-75 CNS = tested on: SNB-75 CNS
SW-620 colon = tested on: SW-620 colon
T-47D breast = tested on: T-47D breast
TK-10 renal = tested on: TK-10 renal
U251 glioblastoma = tested on: U251 glioblastoma
UACC-257 melanoma = tested on: UACC-257 melanoma
UACC-62 melanoma = tested on: UACC-62 melanoma
UO-31 renal = tested on: UO-31 renal

What does the source list for `CCCCCCCC/C=C/CCCCCCCC(=O)OC[C@H]1O[C@@H](n2ccc(N)nc2=O)C(F)(F)[C@@H]1O`?
GI50 ([…]-0 renal): < 10 nM; TGI (786-0 renal): < 10 nM; GI50 (A498 renal): < 10 nM; TGI (A498 renal): 14900 nM; GI50 (A549 NSCLC): < 10 nM; TGI (A549 NSCLC): 11900 nM; GI50 (ACHN renal): < 10 nM; TGI (ACHN renal): < 10 nM; GI50 (BT-549 breast): < 10 nM; TGI (BT-549 breast): < 10 nM; GI50 (CAKI-1 renal): < 10 nM; TGI (CAKI-1 renal): 2990 nM; GI50 (CCRF-CEM leukemia): < 10 nM; TGI (CCRF-CEM leukemia): < 10 nM; GI50 (COLO 205 colon): < 10 nM; TGI (COLO 205 colon): 49.6 nM; GI50 (DU-145 prostate): < 10 nM; TGI (DU-145 prostate): 2390 nM; GI50 (EKVX NSCLC): 57.6 nM; TGI (EKVX NSCLC): 15400 nM; GI50 (HCC-2998 colon): < 10 nM; TGI (HCC-2998 colon): 11.1 nM; GI50 (HCT-116 colon): < 10 nM; TGI (HCT-116 colon): 10200 nM; GI50 (HCT-15 colon): < 10 nM; TGI (HCT-15 colon): 59700 nM; GI50 (HL-60(TB) leukemia): < 10 nM; TGI (HL-60(TB) leukemia): < 10 nM; GI50 (HOP-62 NSCLC): < 10 nM; TGI (HOP-62 NSCLC): < 10 nM; GI50 (HOP-92 NSCLC): 10.5 nM; TGI (HOP-92 NSCLC): 22400 nM; GI50 (HS 578T breast): < 10 nM; TGI (HS 578T breast): 16500 nM; GI50 (HT29 colon): < 10 nM; TGI (HT29 colon): 8700 nM; GI50 (IGROV1 ovarian): < 10 nM; TGI (IGROV1 ovarian): 81400 nM; GI50 (K-562 leukemia): < 10 nM; TGI (K-562 leukemia): 15000 nM; GI50 (KM12 colon): < 10 nM; TGI (KM12 colon): 15300 nM; GI50 (LOX IMVI melanoma): < 10 nM; TGI (LOX IMVI melanoma): 18.8 nM; GI50 (M14 melanoma): < 10 nM; TGI (M14 melanoma): < 10 nM; GI50 (MALME-3M melanoma): < 10 nM; TGI (MALME-3M melanoma): 15100 nM; GI50 (MCF7 breast): < 10 nM; TGI (MCF7 breast): 14100 nM; GI50 (MDA-MB-231 breast): 234 nM; TGI (MDA-MB-231 breast): 13500 nM; GI50 (MDA-MB-435 melanoma): 138 nM; TGI (MDA-MB-435 melanoma): 15600 nM; GI50 (MDA-MB-468 breast): < 10 nM; TGI (MDA-MB-468 breast): < 10 nM; GI50 (MOLT-4 leukemia): < 10 nM; TGI (MOLT-4 leukemia): < 10 nM; GI50 (NCI-H226 lung): 24.8 nM; TGI (NCI-H226 lung): 83.2 nM; GI50 (NCI-H23 lung): < 10 nM; TGI (NCI-H23 lung): < 10 nM; GI50 (NCI-H322M lung): 1310 nM; TGI (NCI-H322M lung): > 100000 nM; GI50 (NCI-H460 NSCLC): < 10 nM; TGI (NCI-H460 NSCLC): < 10 nM; GI50 (NCI-H522 lung): < 10 nM; TGI (NCI-H522 lung): 2220 nM; GI50 (NCI/ADR-RES ovarian): < 10 nM; TGI (NCI/ADR-RES ovarian): < 10 nM; GI50 (OVCAR-3 ovarian): < 10 nM; TGI (OVCAR-3 ovarian): 16700 nM; GI50 (OVCAR-4 ovarian): 38800 nM; TGI (OVCAR-4 ovarian): > 100000 nM; GI50 (OVCAR-5 ovarian): < 10 nM; TGI (OVCAR-5 ovarian): > 100000 nM; GI50 (OVCAR-8 ovarian): < 10 nM; TGI (OVCAR-8 ovarian): < 10 nM; GI50 (PC-3 prostate): 2050 nM; TGI (PC-3 prostate): 35600 nM; GI50 (RPMI-8226 leukemia): < 10 nM; TGI (RPMI-8226 leukemia): < 10 nM; GI50 (RXF 393 renal): < 10 nM; TGI (RXF 393 renal): 90.2 nM; GI50 (SF-268 CNS): < 10 nM; TGI (SF-268 CNS): < 10 nM; GI50 (SF-295 CNS): < 10 nM; TGI (SF-295 CNS): 18.5 nM; GI50 (SF-539 CNS): < 10 nM; TGI (SF-539 CNS): < 10 nM; GI50 (SK-MEL-28 melanoma): < 10 nM; TGI (SK-MEL-28 melanoma): 51500 nM; GI50 (SK-MEL-5 melanoma): < 10 nM; TGI (SK-MEL-5 melanoma): 24.7 nM; GI50 (SK-OV-3 ovarian): < 10 nM; TGI (SK-OV-3 ovarian): 2420 nM; GI50 (SN12C renal): < 10 nM; TGI (SN12C renal): 39.9 nM; GI50 (SNB-19 CNS): < 10 nM; TGI (SNB-19 CNS): 518 nM; GI50 (SNB-75 CNS): < 10 nM; TGI (SNB-75 CNS): 49.2 nM; GI50 (SW-620 colon): < 10 nM; TGI (SW-620 colon): 46000 nM; GI50 (T-47D breast): < 10 nM; TGI (T-47D breast): 1560 nM; GI50 (TK-10 renal): > 100000 nM; TGI (TK-10 renal): > 100000 nM; GI50 (U251 glioblastoma): < 10 nM; TGI (U251 glioblastoma): < 10 nM; GI50 (UACC-257 melanoma): < 10 nM; TGI (UACC-257 melanoma): 92 nM; GI50 (UACC-62 melanoma): < 10 nM; TGI (UACC-62 melanoma): < 10 nM; GI50 (UO-31 renal): < 10 nM; TGI (UO-31 renal): < 10 nM
